Results taken from patent US20020132276A1, “FACS method for detecton of GPIIb/IIIa inhibitor dependent activators in plasma samples” (priority 1999, published 2002).
Entries after “also recorded” stand apart in the source; their conditions may differ.

Experiments:
[1] = tested on: platelet CD62; assay: Modified DDPASFCA using the donor's own platelets; assay type: cell-based; details: healthy human donor, Compound A 200 nM
Method: The occurrence of DDPASs in the general population was tested by a modification of the DDPASFCA using the donor's own platelets to conduct the assay. PRP (100 μL) from healthy human donors was treated with Compound A (200 nM) or vehicle for 90 minutes. A 5μL sample was transferred to microtiter wells containing 20 μL anti-CD62-PE and samples analyzed by flow cytometry as described in Example 1. Positive samples (defined as Delta PE fluorescence of >0) were retested using the method of Example 1 (heterologous donor). 8% of donors were weakly positive (delta between 10 and 25). […] Thus, the prevalence and titer of pre-existing DDPASs is relatively low in the general population.

[2] = tested on: platelet CD62; assay: DDPASFCA: flow cytometric detection of platelet CD62 in plasma samples with and without GPIIb/IIIa antagonist (Example 1 procedure); assay type: cell-based, human; design: key to Delta Med F12: median PE fluorescence with antagonist minus without antagonist
Method: 50 μL of citrated plasma from a patient eliciting a thrombocytopenic response during treatment with Compound A was added to Costar Serocluster® 96 well V-bottom microtiter plates (#3897). GPIIb/IIIa antagonist or vehicle was added (2 μL of 5μM compound A, final concentration 200 nM) was added, followed by sufficient PRP or PRP diluted into PPP to give a final platelet number of 1×10^6/well (typically 2 μL PRP). Reactions were incubated without shaking for 120 minutes. After this time, 15 μL of phycoerythrin conjugated anti-CD62 (anti-CD62-PE, Bectin Dickinson) was added. After 30 minutes the samples were diluted with 130 μL flow buffer (FB) consisting of 10 mM HEPES, 5 mM Kcl, 168 mM NaCl, 1 mM MgCl2. Samples were then transferred to 12×75 mm polystyrene and analyzed on a FACScan (Bectin Dickinson). PE fluorescence was read on FL2. Platelets were identified by their characteristic forward and side light scatter. Data from 10,000 events was obtained per sample and analyzed using Bectin Dickinson CellQuest software. The effects of GPIIb/IIIa antagonists on CD62 expression are expressed as the difference in median PE fluorescence for reactions in the presence of GPIIb/IIIa antagonist and CD62 median PE fluorescence in the absence of a GPIIb/IIIa antagonist.
The procedure was the same as in Example 1 (with modifications outlined in that example) except that where samples were limiting, only 35-40 μL of plasma was used.
Plasma from a patient who developed a thrombocytopenic episode while under therapy with Compound A was analyzed for the presence of DDPASs that might not be of immunoglobulin nature. Plasma from this previously thrombocytopenic patient (taken 17 months after the thrombocytopenia) as well as normal human plasma (negative control) and plasma from a subject known to contain DDPAS (positive control) were processed to remove immunoglobulins by passage through 1 mL protein A Hitrap® columns (Pharmacia, Inc.). The immunoglobulin-depleted plasma was free of IgG as assessed by an IgGl-specific ELISA and negative for the presence of GPIIb/IIIa antagonist-dependent anti-platelet antibodies as assessed by the DDAB ELISA assay. Plasma samples were then tested in the DDPASFCA as described in Example 1. There was no statistical difference between results for plasma samples containing immunoglobulin and those not containing immunoglobulin, Table 1.
The detection of a positive DDPAS titer in the presence of a donor plasma was assessed with dilutions of the DDPASFCA-positive plasma DPC38 into the DDPASFCA-negative plasma DPC50 using platelets from DPC50 as follows: Varying volume amounts of control plasma (DPC50), not containing DDPASs, were mixed with a the DDPAS-positive test plasma (total volume 50 μL). 1×10^6 platelets (PRP) was added. Samples were treated as in Example 1 with and without added Compound A. In the concentration range employed, DDPASs could be quantitatively measured in the test plasma. […] Thus, the signal intensity in the DDPASFCA was dose-dependent with respect to the plasma concentration for the DDPASFCA-positive subject DPC38. In contrast DDPASs were undetectable in the control plasma.
The development of DDPASs in the plasma of a patient who received Compound A and developed thrombocytopenia was analyzed using the procedure of Example 1. DDPASFCA was not determined for patient #304 prior to taking Compound A. The patient experienced thrombocytopenia after 3 days of administration of Compound A. DDPASs were subsequently detected in this patient's plasma on day 22 post-administration of Compound A and were also detected 17 months later (FIG. 2). DPC38 was used as a positive control. DPC3 was used as a negative control. […] In a prospective study, a patient with such pre-existing DDPASs could be excluded from the study, possibly preventing the clinically significant thrombocytopenic episode.

[3] = tested on: platelet CD62; assay: Detection of ADP as a GPIIb/IIIa DDPAS by DDPASFCA; assay type: cell-based, human; details: ADP 0 μM
Method: Adenosine diphosphate (ADP) was evaluated as a possible DDPAS as follows: Compound A (final concentration 1 μM) or vehicle was added to 25 μL of freshly prepared PRP in wells of a 96-well microtiter plate. Another set of wells received vehicle. After 10 minutes, 2.5 μL of from each well was transferred to microtiter wells containing only 20 μL of anti-CD62-PE. After incubation for 30 minutes, samples were analyzed by flow cytometry as in Example 1.

[4] = Neg. control plasma, IgG status +
[5] = Neg. control plasma, IgG status − (protein A-depleted)
[6] = Pos. control plasma, IgG status +
[7] = Pos. control plasma, IgG status − (protein A-depleted)
[8] = TCP plasma, IgG status − (protein A-depleted plasma)

CCCCOC(=O)N[C@@H](CNC(=O)C[C@H]1CC(c2ccc(C(=N)N)cc2)=NO1)C(=O)O [Compound A, 2(S)-[(n-butoxycarbonyl)amino]-3-[[[3-[4-(aminoiminomethyl)phenyl]isoxazolin-5(R)-yl]methylcarbonyl]amino]propionic acid]
Delta PE fluorescence of the significantly positive sample [1]: 566
+ compound Med F12 ([2]; DPC38 0 ul, DPC50 50 ul): 12
Delta Med F12 ([2]; DPC38 0 ul, DPC50 50 ul): −8
+ compound Med F12 ([2]; DPC38 8 ul, DPC50 42 ul): 64
Delta Med F12 ([2]; DPC38 8 ul, DPC50 42 ul): 20
+ compound Med F12 ([2]; DPC38 10 ul, DPC50 40 ul): 73
Delta Med F12 ([2]; DPC38 10 ul, DPC50 40 ul): 17
+ compound Med F12 ([2]; DPC38 12 ul, DPC50 38 ul): 88
Delta Med F12 ([2]; DPC38 12 ul, DPC50 38 ul): 17
+ compound Med F12 ([2]; DPC38 17 ul, DPC50 33 ul): 135
Delta Med F12 ([2]; DPC38 17 ul, DPC50 33 ul): 21
+ compound Med F12 ([2]; DPC38 25 ul, DPC50 25 ul): 271
Delta Med F12 ([2]; DPC38 25 ul, DPC50 25 ul): 79
Delta Med F12 ([2]; DPC38 50 ul, DPC50 0 ul): 304
+ compound Med F12 ([2]; DPC38 50 ul, DPC50 0 ul, DPC50 platelets): 670
Delta (median PE fluorescence with minus without compound A) [2, 4]: −2 +/− 2
FL2 compound A (median PE fluorescence) [2, 4]: 16 +/− 1
Delta (median PE fluorescence with minus without compound A) [2, 5]: −44 +/− 15
FL2 compound A (median PE fluorescence) [2, 5]: 30 +/− 9
Delta (median PE fluorescence with minus without compound A) [2, 6]: 142 +/− 73
FL2 compound A (median PE fluorescence) [2, 6]: 315 +/− 27
Delta (median PE fluorescence with minus without compound A) [2, 7]: 122 +/− 52
FL2 compound A (median PE fluorescence) [2, 7]: 297 +/− 33
Delta (median PE fluorescence with minus without compound A) ([2]; TCP plasma, IgG status + (plasma)): 78 +/− 10
FL2 compound A (median PE fluorescence) ([2]; TCP plasma, IgG status + (plasma), Compound A 200 nM): 154 +/− 8
Delta (median PE fluorescence with minus without compound A) [2, 8]: 94 +/− 25
FL2 compound A (median PE fluorescence) [2, 8]: 156 +/− 20
DDPASs in patient plasma ([2]; patient #304, 17 months later): also detected
DDPASs in patient plasma ([2]; patient #304, day 22 post-administration of Compound A): detected; also recorded: DDPASFCA positive
DDPASs in plasmas of DDAB ELISA positive patients ([2]; pre-dose and study exit plasma, patients without clinically significant thrombocytopenia, except sample 099016): no substantial DDPASs
+ compound Med F12 ([3]; Compound A 1 μM alone): 11
Delta Med F12 ([3]; with minus without Compound A 1 μM): −1
